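Briefly, cells in 96-well plates were exposed to five compound concentrations for 48 h, and endpoints were estimated by linear interpolation. The concentration for full growth arrest is given as TGI.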
Legend:
Assay in all cases: NCI anticancer screen, dose series, 48 h
786-0 renal = test system: 786-0 renal
CCRF-CEM leukemia = test system: CCRF-CEM leukemia
COLO 205 colon = test system: COLO 205 colon
HCC-2998 colon = test system: HCC-2998 colon
HCT-15 colon = test system: HCT-15 colon
HOP-62 NSCLC = test system: HOP-62 NSCLC
M14 melanoma = test system: M14 melanoma
MALME-3M melanoma = test system: MALME-3M melanoma
MDA-MB-231 breast = test system: MDA-MB-231 breast
MDA-MB-435 = test system: MDA-MB-435
NCI-H226 lung = test system: NCI-H226 lung
NCI/ADR-RES ovarian = test system: NCI/ADR-RES ovarian
OVCAR-4 ovarian = test system: OVCAR-4 ovarian
RPMI-8226 leukemia = test system: RPMI-8226 leukemia
SK-MEL-28 melanoma = test system: SK-MEL-28 melanoma
SK-OV-3 ovarian = test system: SK-OV-3 ovarian
T-47D breast = test system: T-47D breast
U251 CNS = test system: U251 CNS

Row | Structure (SMILES) | TGI (786-0 renal) [µM] | TGI (CCRF-CEM leukemia) [µM] | TGI (COLO 205 colon) [µM] | TGI (HCC-2998 colon) [µM] | TGI (HCT-15 colon) [µM] | TGI (HOP-62 NSCLC) [µM] | TGI (M14 melanoma) [µM] | TGI (MALME-3M melanoma) [µM] | TGI (MDA-MB-231 breast) [µM] | TGI (MDA-MB-435) [µM] | TGI (NCI-H226 lung) [µM] | TGI (NCI/ADR-RES ovarian) [µM] | TGI (OVCAR-4 ovarian) [µM] | TGI (RPMI-8226 leukemia) [µM] | TGI (SK-MEL-28 melanoma) [µM] | TGI (SK-OV-3 ovarian) [µM] | TGI (T-47D breast) [µM] | TGI (U251 CNS) [µM]
1 | CCOP(=O)(OCC)/C(C#N)=C/c1ccc(-c2ccc(F)cc2F)o1 | 27.4 | 38.7 | 30.7 | 27.6 | 28.7 | 33.8 | 31.7 | 33.4 | 36.6 | 27 | 36 | 58.9 | 33.4 | 51.9 | 28.1 | 26.9 | 8.35 | 32.6
2 | CCN(CCCN(CC)C(=O)Nc1ccccc1)C(=O)Nc1ccccc1 | > 100 | > 100 | > 100 | > 100 | > 100 | > 100 | > 100 | > 100 | > 100 | > 100 | > 100 | > 100 | > 100 | > 100 | > 100 | > 100 | > 100 | > 100
3 | CCOP(=O)(OCC)C(Nc1cccc([N+](=O)[O-])c1)c1ccccc1 (stereo unspecified) | > 100 | > 100 | > 100 | > 100 | > 100 | > 100 | > 100 | > 100 | > 100 | > 100 | > 100 | > 100 | > 100 | > 100 | > 100 | > 100 | 62.1 | > 100
4 | CCCCn1cnnc1NS(=O)(=O)c1cc(C)c(Cl)cc1SCC(=O)O | > 10 | > 10 | > 10 | > 10 | > 10 | > 10 | > 10 | > 10 | > 10 | > 10 | > 10 | > 10 | > 10 | > 10 | > 10 | > 10 | > 10 | > 10
5 | O=C(O)CCC(NC(=O)c1ccc(Nc2cnc3ccc(C(F)(F)F)cc3n2)cc1)C(=O)O (stereo unspecified) | > 100 | > 100 | > 100 | > 100 | > 100 | > 100 | > 100 | > 100 | > 100 | > 100 | > 100 | > 100 | > 100 | > 100 | > 100 | > 100 | > 100 | > 100
6 | CN=CN(C)c1c2ccccc2nc2ccccc12 | > 100 | > 100 | > 100 | > 100 | > 100 | > 100 | > 100 | > 100 | > 100 | > 100 | > 100 | > 100 | > 100 | > 100 | > 100 | > 100 | > 100 | > 100
7 | Cc1cccc2c(=O)c3c(O)cc(O)cc3[nH]c12 | > 10 | > 10 | > 10 | > 10 | > 10 | > 10 | > 10 | > 10 | > 10 | > 10 | > 10 | > 10 | > 10 | > 10 | > 10 | > 10 | > 10 | > 10

Reference: PubChem BioAssay (NCI)
